Data set [1] in a line: Acidic dissociation constant (pKa) determined in 50% aqueous ethanol;ND is defined as no-data. The format is physicochemical.
Data set [2] is described as follows: Acidic dissociation constant (pKa) determined in 50% aqueous ethanol. The data set is classed as physicochemical.

One may read the pKa as the pH at which an ionisable group is half protonated. Read a high pKa as a weaker acid or stronger base. Turning to `O=C(O)C(=O)CC(=O)c1ccc(-c2ccccc2)cc1`, the pKa in data set [1] and in data set [2] was 3.34 in each case.
